Activity calls are given as the source filed them. No cut-off for these calls is given here.
Assays:
MCF7 = test: Antiproliferative activity against human MCF7 cells measured after 72 hrs by MTT assay; assay type: functional, cell-based; settings: MCF7, 72 h
A549 = test: Potency index, ratio of foretinib IC50 to test compound IC50 for antiproliferative activity against human A549 cells; assay type: functional
MDA-MB-231 = test: Antiproliferative activity against human MDA-MB-231 cells measured after 72 hrs by MTT assay; assay type: functional, cell-based
[1] = target: T1, Tyrosine-protein kinase receptor UFO (Homo sapiens, UniProt P30530); test: Inhibition of human N-terminal GST-fused Axl cytoplasmic domain (464 to 885 residues) expressed in baculovirus expression system using CSKtide as substrate measured after 1 hr by mobility shift assay
T1 sequence (P30530 whole entry): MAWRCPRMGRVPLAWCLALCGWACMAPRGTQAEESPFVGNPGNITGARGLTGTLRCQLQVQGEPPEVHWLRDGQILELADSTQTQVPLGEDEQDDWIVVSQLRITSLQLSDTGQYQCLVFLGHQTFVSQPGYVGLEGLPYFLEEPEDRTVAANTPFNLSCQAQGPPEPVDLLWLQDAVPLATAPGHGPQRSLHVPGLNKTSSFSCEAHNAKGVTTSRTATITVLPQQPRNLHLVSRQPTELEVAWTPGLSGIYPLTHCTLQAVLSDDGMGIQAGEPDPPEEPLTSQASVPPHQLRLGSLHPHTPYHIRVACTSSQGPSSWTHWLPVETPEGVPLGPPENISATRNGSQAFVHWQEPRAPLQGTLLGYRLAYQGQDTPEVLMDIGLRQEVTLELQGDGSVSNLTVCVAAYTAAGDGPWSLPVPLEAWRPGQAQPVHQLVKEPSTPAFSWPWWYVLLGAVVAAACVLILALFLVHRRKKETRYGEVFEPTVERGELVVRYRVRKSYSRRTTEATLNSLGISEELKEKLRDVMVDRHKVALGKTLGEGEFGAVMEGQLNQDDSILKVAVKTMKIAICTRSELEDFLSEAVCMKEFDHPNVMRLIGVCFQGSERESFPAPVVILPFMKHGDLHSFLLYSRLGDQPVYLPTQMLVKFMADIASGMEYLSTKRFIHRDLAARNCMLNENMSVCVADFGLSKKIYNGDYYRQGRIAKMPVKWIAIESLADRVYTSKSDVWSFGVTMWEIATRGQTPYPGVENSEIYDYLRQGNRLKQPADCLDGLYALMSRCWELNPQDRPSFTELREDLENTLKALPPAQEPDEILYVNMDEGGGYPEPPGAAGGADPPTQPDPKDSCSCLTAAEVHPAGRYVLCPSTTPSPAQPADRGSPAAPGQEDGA

[2] = target: Hepatocyte growth factor receptor (Homo sapiens, UniProt P08581); test: Inhibition of human N-terminal GST-fused c-MET cytoplasmic domain (956 to 1390 residues) expressed in baculovirus expression system using Srctide as substrate measured after 1 hr by mobility shift assay
[3] = target: Vascular endothelial growth factor receptor 2 (Homo sapiens, UniProt P35968); test: Inhibition of human N-terminal GST-fused KDR cytoplasmic domain (790 to 1356 residues) expressed in baculovirus expression system using CSKtide as substrate measured after 1 hr by mobility shift assay
[4] = target: Mast/stem cell growth factor receptor Kit (Homo sapiens, UniProt P10721); test: Inhibition of human N-terminal GST-tagged c-Kit cytoplasmic domain (544 to end residues) expressed in baculovirus infected Sf21 insect cells using peptide substrate measured after 1 hr by mobility shift assay
[5] = target: T2, Tyrosine-protein kinase Mer (Homo sapiens, UniProt Q12866); test: Inhibition of MER (unknown origin)
T2 sequence (Q12866 whole entry): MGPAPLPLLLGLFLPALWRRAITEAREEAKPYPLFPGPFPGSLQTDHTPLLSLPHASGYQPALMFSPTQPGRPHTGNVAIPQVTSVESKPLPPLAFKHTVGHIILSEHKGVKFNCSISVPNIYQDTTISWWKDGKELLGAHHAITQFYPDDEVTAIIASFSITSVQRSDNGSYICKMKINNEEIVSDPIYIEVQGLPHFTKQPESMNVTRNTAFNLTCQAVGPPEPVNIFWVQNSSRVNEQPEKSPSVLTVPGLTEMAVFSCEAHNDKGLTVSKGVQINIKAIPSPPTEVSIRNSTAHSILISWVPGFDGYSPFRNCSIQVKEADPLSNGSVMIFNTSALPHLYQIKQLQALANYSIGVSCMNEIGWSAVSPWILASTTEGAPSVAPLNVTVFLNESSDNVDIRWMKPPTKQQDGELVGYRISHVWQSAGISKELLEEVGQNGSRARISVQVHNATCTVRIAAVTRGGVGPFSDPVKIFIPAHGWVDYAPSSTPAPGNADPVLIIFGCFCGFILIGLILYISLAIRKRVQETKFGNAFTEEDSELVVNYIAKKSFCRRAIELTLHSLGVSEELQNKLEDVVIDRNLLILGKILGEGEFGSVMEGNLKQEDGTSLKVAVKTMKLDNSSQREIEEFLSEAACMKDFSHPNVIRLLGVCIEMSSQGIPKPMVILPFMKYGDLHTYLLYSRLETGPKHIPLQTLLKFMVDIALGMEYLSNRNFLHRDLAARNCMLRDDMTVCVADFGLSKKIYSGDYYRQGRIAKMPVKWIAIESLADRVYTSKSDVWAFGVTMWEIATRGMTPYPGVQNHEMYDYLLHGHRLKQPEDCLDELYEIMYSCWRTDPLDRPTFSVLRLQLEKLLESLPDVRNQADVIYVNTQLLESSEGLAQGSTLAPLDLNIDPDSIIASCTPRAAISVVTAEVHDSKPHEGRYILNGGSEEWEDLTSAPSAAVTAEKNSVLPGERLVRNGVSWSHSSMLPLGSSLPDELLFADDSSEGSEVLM

Mast/stem cell growth factor receptor Kit, sequence (P10721 whole entry, the tested form may be a part): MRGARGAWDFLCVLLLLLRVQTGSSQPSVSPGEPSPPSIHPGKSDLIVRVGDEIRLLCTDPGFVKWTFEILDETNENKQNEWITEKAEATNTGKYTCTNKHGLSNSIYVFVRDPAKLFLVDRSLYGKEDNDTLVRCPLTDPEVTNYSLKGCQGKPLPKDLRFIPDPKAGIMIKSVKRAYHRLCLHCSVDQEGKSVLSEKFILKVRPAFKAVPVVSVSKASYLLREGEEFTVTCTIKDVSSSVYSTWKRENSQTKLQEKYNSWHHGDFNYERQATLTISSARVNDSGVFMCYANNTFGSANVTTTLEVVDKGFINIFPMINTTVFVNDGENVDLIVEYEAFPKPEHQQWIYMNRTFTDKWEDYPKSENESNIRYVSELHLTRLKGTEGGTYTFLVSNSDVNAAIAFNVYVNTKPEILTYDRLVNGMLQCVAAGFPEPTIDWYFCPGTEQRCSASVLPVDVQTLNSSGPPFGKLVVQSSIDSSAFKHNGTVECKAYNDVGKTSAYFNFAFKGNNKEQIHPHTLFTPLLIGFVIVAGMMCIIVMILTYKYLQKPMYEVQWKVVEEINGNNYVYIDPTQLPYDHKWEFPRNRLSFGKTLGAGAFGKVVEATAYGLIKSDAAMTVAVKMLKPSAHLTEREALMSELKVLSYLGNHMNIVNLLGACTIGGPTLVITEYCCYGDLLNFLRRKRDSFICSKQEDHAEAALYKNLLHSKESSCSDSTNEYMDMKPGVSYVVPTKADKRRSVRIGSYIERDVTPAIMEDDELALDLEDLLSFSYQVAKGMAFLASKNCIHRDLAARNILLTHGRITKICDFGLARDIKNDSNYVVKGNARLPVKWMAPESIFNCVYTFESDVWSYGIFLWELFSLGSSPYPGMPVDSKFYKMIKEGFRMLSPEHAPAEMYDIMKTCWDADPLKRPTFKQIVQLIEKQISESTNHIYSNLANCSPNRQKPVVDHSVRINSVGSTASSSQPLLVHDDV
Vascular endothelial growth factor receptor 2, sequence (P35968 whole entry, the tested form may be a part): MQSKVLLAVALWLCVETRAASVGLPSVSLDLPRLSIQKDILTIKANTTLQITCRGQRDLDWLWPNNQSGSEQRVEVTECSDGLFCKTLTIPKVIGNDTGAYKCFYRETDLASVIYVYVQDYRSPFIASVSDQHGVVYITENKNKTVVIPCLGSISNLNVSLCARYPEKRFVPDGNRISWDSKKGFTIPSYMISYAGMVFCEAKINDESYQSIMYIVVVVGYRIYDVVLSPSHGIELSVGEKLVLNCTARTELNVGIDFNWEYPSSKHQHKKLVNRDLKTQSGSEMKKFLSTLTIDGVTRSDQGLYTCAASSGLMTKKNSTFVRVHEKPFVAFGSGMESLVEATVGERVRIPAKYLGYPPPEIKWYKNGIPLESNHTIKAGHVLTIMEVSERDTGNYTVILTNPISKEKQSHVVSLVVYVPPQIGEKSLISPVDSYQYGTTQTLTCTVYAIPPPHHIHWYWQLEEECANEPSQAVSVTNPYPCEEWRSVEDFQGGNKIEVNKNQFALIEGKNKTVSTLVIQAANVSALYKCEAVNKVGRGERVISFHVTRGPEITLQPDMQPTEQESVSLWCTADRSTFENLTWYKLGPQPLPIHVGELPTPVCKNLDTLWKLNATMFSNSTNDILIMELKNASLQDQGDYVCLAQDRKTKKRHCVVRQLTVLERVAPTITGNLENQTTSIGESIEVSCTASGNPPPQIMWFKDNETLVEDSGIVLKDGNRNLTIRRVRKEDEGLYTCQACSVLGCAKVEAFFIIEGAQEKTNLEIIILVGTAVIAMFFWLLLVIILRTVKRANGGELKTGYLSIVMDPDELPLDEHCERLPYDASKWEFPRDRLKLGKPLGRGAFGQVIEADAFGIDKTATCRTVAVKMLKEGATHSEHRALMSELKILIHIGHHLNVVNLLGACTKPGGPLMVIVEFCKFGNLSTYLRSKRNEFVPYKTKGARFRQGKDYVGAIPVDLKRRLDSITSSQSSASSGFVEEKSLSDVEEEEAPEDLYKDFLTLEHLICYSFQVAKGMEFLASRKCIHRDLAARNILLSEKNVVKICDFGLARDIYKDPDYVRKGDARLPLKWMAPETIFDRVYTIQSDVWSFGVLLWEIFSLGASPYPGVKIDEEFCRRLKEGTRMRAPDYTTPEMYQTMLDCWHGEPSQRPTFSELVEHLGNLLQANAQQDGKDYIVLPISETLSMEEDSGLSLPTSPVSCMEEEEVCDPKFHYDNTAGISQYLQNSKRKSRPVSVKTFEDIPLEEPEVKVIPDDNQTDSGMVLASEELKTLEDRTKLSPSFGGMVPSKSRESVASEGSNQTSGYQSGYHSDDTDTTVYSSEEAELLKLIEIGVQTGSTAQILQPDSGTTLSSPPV
Hepatocyte growth factor receptor, sequence (P08581 whole entry, the tested form may be a part): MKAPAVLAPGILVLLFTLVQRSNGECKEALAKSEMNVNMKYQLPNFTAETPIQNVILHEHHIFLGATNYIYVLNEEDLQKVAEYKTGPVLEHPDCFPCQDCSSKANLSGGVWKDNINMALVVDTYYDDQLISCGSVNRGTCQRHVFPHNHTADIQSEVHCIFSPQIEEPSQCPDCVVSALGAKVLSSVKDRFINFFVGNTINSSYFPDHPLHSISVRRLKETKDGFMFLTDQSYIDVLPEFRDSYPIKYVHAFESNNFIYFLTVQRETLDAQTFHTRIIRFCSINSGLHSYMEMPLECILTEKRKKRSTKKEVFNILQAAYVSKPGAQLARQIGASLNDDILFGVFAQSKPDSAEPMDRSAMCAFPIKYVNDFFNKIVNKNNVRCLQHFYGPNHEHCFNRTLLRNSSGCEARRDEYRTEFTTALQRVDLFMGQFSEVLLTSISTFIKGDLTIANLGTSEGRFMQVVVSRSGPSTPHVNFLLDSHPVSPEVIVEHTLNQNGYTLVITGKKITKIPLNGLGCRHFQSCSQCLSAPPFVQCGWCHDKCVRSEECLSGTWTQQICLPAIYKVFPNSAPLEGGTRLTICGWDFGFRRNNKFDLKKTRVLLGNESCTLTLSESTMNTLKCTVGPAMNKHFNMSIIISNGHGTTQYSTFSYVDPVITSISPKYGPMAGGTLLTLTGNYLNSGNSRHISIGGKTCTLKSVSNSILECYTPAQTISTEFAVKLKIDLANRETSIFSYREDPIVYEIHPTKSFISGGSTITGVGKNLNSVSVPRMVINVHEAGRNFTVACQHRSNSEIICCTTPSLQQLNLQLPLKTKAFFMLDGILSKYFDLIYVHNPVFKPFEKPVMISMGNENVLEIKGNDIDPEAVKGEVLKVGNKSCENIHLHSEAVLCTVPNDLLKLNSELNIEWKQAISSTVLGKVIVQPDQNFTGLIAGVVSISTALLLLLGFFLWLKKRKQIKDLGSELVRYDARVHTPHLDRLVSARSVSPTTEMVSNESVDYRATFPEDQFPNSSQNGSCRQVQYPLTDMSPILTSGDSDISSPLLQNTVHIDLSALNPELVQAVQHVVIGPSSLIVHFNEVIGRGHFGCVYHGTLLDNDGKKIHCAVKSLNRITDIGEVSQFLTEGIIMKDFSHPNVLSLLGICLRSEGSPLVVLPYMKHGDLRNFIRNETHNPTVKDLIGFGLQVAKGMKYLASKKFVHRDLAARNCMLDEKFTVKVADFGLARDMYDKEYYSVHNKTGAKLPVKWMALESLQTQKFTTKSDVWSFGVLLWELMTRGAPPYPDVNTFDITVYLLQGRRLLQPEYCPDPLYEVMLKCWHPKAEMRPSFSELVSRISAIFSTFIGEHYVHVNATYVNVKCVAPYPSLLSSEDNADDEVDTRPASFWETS

IC50 (MCF7): 1010 nM
IC50 [1]: 10 nM
IC50 [2]: 71 nM
IC50 [3]: 81 nM
IC50 [4]: 63 nM
IC50 [5]: > 200 nM
SMILES: COc1cc2c(Oc3ccc(NC(=O)C4(c5nnc(-c6ccc(F)cc6)o5)CC4)cc3F)ccnc2cc1OCCCN1CCCCC1
Ratio IC50 (A549): 1.9
Activity (MDA-MB-231): Active
